The source of these data is PubChem BioAssay AID1259411 (Chemical Carcinogenesis Research Information System (CCRIS), 2018).

This data set has as its system rodent carcinogenicity bioassays, tumor incidence. The data set can be described thus: CCRIS carcinogenicity studies. In a few lines: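 Archive of carcinogenicity, mutagenicity, tumor promotion and tumor inhibition results drawn from journals, NCI reports and other sources, expert-reviewed; covers 1985-2011 and is no longer updated.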

Active and inactive are the calls of the source. No rule for the calls is given here.

As to `Cc1ccc(N)cc1N`, the carcinogen call is “active; positive” (Species: MOUSE, Strain/Sex: B6C3F1/FEMALE, Route: ORAL, Dose: 0, 100, 200 PPM IN DIET FOR 101 WK, Dose: 0, 100, 200 PPM IN DIET FOR 101 WK, Tumor Site: Type of Lesion: HEMATOPOIETIC SYSTEM (LEUKEMIA), LYMPHATIC SYSTEM: LYMPHOMA, LIVER: HEPATOCELLULAR CARCINOMA, Tumor Site: Type of Lesion: HEMATOPOIETIC SYSTEM (LEUKEMIA), LYMPHATIC SYSTEM: LYMPHOMA, LIVER: HEPATOCELLULAR CARCINOMA); “inactive; negative” (Species: MOUSE, Strain/Sex: B6C3F1/MALE, Route: ORAL, Dose: 0, 100, 200 PPM IN DIET FOR 101 WK, Dose: 0, 100, 200 PPM IN DIET FOR 101 WK); “active; positive” (Species: RAT, Strain/Sex: F344/FEMALE, Route: ORAL, Dose: 0, 79, 171 PPM TWA, IN DIET FOR 84-103 WK, Dose: 0, 79, 171 PPM TWA, IN DIET FOR 84-103 WK, Tumor Site: Type of Lesion: INTEGUMENTARY SYSTEM (SUBCUTANEOUS TISSUE): FIBROMA, FIBROSARCOMA, LIVER: HEPATOCELLULAR CARCINOMA OR NEOPLASTIC NODULE;, Tumor Site: Type of Lesion: INTEGUMENTARY SYSTEM (SUBCUTANEOUS TISSUE): FIBROMA, FIBROSARCOMA, LIVER: HEPATOCELLULAR CARCINOMA OR NEOPLASTIC NODULE); “active; positive” (Species: RAT, Strain/Sex: F344/MALE, Route: ORAL, Dose: 0, 79, 176 PPM TWA, IN DIET FOR 79-103 WK, Dose: 0, 79, 176 PPM TWA, IN DIET FOR 79-103 WK, Tumor Site: Type of Lesion: INTEGUMENTARY SYSTEM (SUBCUTANEOUS TISSUE): SQUAMOUS CELL CARCINOMA, FIBROMA, LIPOMA, LIVER: HEPATOCELLULAR CARCINOMA OR).
For the molecule `Nc1cccc(N)c1`, the carcinogen call was “inactive; negative” (Species: MOUSE, Strain/Sex: B6C3F1/FEMALE, Route: ORAL, Dose: 0, 0.02, 0.04% IN DRINKING WATER FOR 78 WK, TOTAL INTAKE 13.0, 22.9 G/KG (STUDY DURATION: 85 WK), Dose: 0, 0.02, 0.04% IN DRINKING WATER FOR 78 WK, TOTAL INTAKE 13.0, 22.9 G/KG (STUDY DURATION: 85 WK)) and “inactive; negative” (Species: MOUSE, Strain/Sex: B6C3F1/MALE, Route: ORAL, Dose: 0, 0.02, 0.04% IN THE DRINKING WATER FOR 78 WK, TOTAL INTAKE 10.9, 21.0 G/KG BODY WEIGHT (STUDY DURATION: 85 WK), Dose: 0, 0.02, 0.04% IN THE DRINKING WATER FOR 78 WK, TOTAL INTAKE 10.9, 21.0 G/KG BODY WEIGHT (STUDY DURATION: 85 WK)).
Turning to `O[C@H]1C=C2c3c(cccc3[C@@H]1O)-c1ccc3ccccc3c12`, the carcinogen call reads like this: (Species: MOUSE, Strain/Sex: CD-1/FEMALE, Route: INTRAPERITONEAL, Dose: 0, 0.275, 1.1 UMOL (TOTAL DOSE) ADMINISTERED OVER DAYS 1, 8, AND 15 OF LIFE (STUDY DURATION: 52 WEEKS), Dose: 0, 0.275, 1.1 UMOL (TOTAL DOSE) ADMINISTERED OVER DAYS 1, 8, AND 15 OF LIFE (STUDY DURATION: 52 WEEKS), Tumor Site: Type of Lesion: LUNG: ALVEOLAR/BRONCHIOLAR CARCINOMA) “active; positive”; (Species: MOUSE, Strain/Sex: CD-1/MALE, Route: INTRAPERITONEAL, Dose: 0, 0.275, 1.1 UMOL (TOTAL DOSE) ADMINISTERED OVER DAYS 1, 8, AND 15 OF LIFE (STUDY DURATION: 52 WEEKS), Dose: 0, 0.275, 1.1 UMOL (TOTAL DOSE) ADMINISTERED OVER DAYS 1, 8, AND 15 OF LIFE (STUDY DURATION: 52 WEEKS), Tumor Site: Type of Lesion: LUNG: ALVEOLAR/BRONCHIOLAR CARCINOMA, LIVER: ADENOMA OR CARCINOMA) “active; positive”.
`NC=O`: the carcinogen call by setting is: (Species: Mouse, Strain/Sex: B5C3F1/Female, Route: Oral, Dose: 0, 20, 40, 80 mg/kg in deioninzed water, by gavage, 5 d/wk for 104-105 wk, Tumor Site: Type of Lesion: Liver: hepatocellular adenoma and carcinoma (combined)) “active; positive, authors described results as equivocal evidence of carcinogenic activi”; (Species: Mouse, Strain/Sex: B6C3F1/Male, Route: Oral, Dose: 0, 20, 40, 80 mg/kg in deioninzed water, by gavage, 5 d/wk for 104-105 wk, Tumor Site: Type of Lesion: Liver: hemangiosarcoma) “active; positive, authors described results as clear evidence of carcinogenic activity”; (Species: Rat, Strain/Sex: F344/N/Female, Route: Oral, Dose: 0, 20, 40, 80 mg/kg in deioninzed water, by gavage, 5 d/wk for 104-105 wk) “inactive; negative”; (Species: Rat, Strain/Sex: F344/N/Male, Route: Oral, Dose: 0, 20, 40, 80 mg/kg in deioninzed water, by gavage, 5 d/wk for 104-105 wk) “inactive; negative”.
With `c1ccc2c(c1)ccc1c3ccccc3sc21`, the carcinogen call (Species: RAT, Strain/Sex: OSBORNE-MENDEL/FEMALE, Route: INTRAPULMONARY IMPLANT, Dose: 0, 1, 3, 6 MG IN BEESWAX AND TRIOCTANOIN IMPLANTED IN LUNG (STUDY DURATION: 141 WK), Dose: 0, 1, 3, 6 MG IN BEESWAX AND TRIOCTANOIN IMPLANTED IN LUNG (STUDY DURATION: 141 WK), Tumor Site: Type of Lesion: LUNG: CARCINOMA) is “active; positive”.
On to `O=C1NCCN1c1ncc([N+](=O)[O-])s1`, for which the carcinogen call was “active; positive” (Species: HAMSTER, Route: ORAL, Tumor Site: Type of Lesion: FORESTOMACH, URINARY BLADDER) and “active; positive” (Species: MOUSE, Route: ORAL, Tumor Site: Type of Lesion: FORESTOMACH, MAMMARY GLAND, OVARIES, LUNG, URINARY BLADDER, Tumor Site: Type of Lesion: FORESTOMACH, MAMMARY GLAND, OVARIES, LUNG, URINARY BLADDER).
With `Nc1nc2ncc(CNc3ccc(C(=O)N(N=O)[C@@H](CCC(=O)O)C(=O)O)cc3)nc2c(=O)[nH]1`, the carcinogen call (Species: RAT, Route: ORAL, Tumor Site: Type of Lesion: LIVER) is “active; positive”.
Turning to `O=[N+]([O-])c1ccccc1Cl`, the carcinogen call (Species: MOUSE, Strain/Sex: CD-1/FEMALE, Route: ORAL, Dose: 3000, 6000 MG/KG IN DIET FOR 18 MO, Tumor Site: Type of Lesion: LIVER: HEPATOCELLULAR CARCINOMA) was “active; positive”.
For the molecule `Clc1ccc(-c2cc(Cl)c(Cl)cc2Cl)cc1Cl`, under “Species: Rat, Strain/Sex: Harlan Sprague-Dawley/Female (80/Group), Route: Oral, Dose: 0, 100, 220, 460, 1000, 4600 ug/kg in corn oil, by gavage, 5 d/wk for 2 yr, Dose: 0, 100, 220, 460, 1000, 4600 ug/kg in corn oil, by gavage, 5 d/wk for 2 yr, Tumor Site: Type of Lesion: Liver: cholangiocarcinoma (0/52, 0/51, 0/52, 0/52, 3/52, 36/49, 29/49), hepatocellular adenoma (0/52, 1/51, 1/52, 4/52”, the carcinogen call was “active; positive”.
With `COc1cc2c(c3oc(=O)c4c(c13)CC[C@@H]4O)[C@@H]1C=CO[C@@H]1O2`, the carcinogen call reads like this: (Species: FISH, Strain/Sex: SHASTA RAINBOW TROUT/MALE, FEMALE, Route: IMMERSION, Dose: 0, 0.01, 0.025, 0.05, 0.1, 0.25, 0.5 PPM SOLUTION IN WATER FOR 1 HR EXPOSURE OF EMBRYOS (STUDY DURATION: 13 MO), Dose: 0, 0.01, 0.025, 0.05, 0.1, 0.25, 0.5 PPM SOLUTION IN WATER FOR 1 HR EXPOSURE OF EMBRYOS (STUDY DURATION: 13 MO), Tumor Site: Type of Lesion: LIVER: TUMORS) “active; positive”; (Species: FISH, Strain/Sex: SHASTA RAINBOW TROUT/MALE, FEMALE, Route: ORAL, Dose: 0, 4, 8, 16, 32, 64 PPB IN DIET FOR 2 WK FOLLOWED BY CONTROL DIET FOR THE DURATION OF STUDY (STUDY DURATION: 9 MO), Dose: 0, 4, 8, 16, 32, 64 PPB IN DIET FOR 2 WK FOLLOWED BY CONTROL DIET FOR THE DURATION OF STUDY (STUDY DURATION: 9 MO), Tumor Site: Type of Lesion: LIVER: TUMOR) “active; positive”; (Species: RAT, Strain/Sex: F344/MALE, Route: ORAL, Dose: 50, 200 PPB IN DIET 2/WK FOR 12 MO, Tumor Site: Type of Lesion: LIVER: HEPATOCELLULAR CARCINOMA) “active; positive”; (Species: TROUT, Strain/Sex: MT. SHASTA RAINBOW, Route: ORAL, Dose: 29 PPB IN DIET FOR 12 MO, Tumor Site: Type of Lesion: LIVER: HEPATOCELLULAR CARCINOMA) “active; positive”.
`O=NN1CCOC1`: the carcinogen call was “active; positive” (Species: HAMSTER, Strain/Sex: SYRIAN/MALE, Route: INTRAGASTRIC, Dose: 0, 23 MG/ML IN 0.2 ML STERILIZED WATER 1/WK FOR 35 WK (TOTAL DOSE 161 MG) (STUDY DURATION: LIFESPAN), Tumor Site: Type of Lesion: LIVER: HEPATOCELLULAR CARCINOMA, ADENOMA, HEMANGIOSARCOMA, CHOLANGIOCARCINOMA) and “active; positive” (Species: RAT, Strain/Sex: F344/FEMALE, Route: ORAL, Dose: 35 MG/L IN DRINKING WATER FOR 50 WK, Tumor Site: Type of Lesion: LIVER: HEPATOCELLULAR CARCINOMA, HEMANGIOENDOTHELIAL SARCOMA).
On to `CCN(CC)C(=O)N(CC)N=O`, for which the carcinogen call (Species: HAMSTER, Strain/Sex: SYRIAN/MALE, Route: GAVAGE, Dose: 0, 45 MG/ML (0.2 ML OF A SOLUTION IN 50% ETHANOL) 1/WK FOR 25 WK (STUDY DURATION: LIFE SPAN), Tumor Site: Type of Lesion: SPLEEN: HEMANGIOSARCOMA, FORESTOMACH: SQUAMOUS CELL CARCINOMA OR PAPILLOMA) is “active; positive”.
